Literature values as cited in patent US8828946B2, “Composition comprising interleukin-1 receptor antagonist and corticosteroid” (Orthogen AG, priority 2009, dated 2014).

Key:
[1] = system: osteoarthritis
[2] = system: moderate rhizarthrosis ri; conditions: Case II; injections in the past (patient history)
[3] = system: impingement le shoulder; conditions: Case IV; previous injections (patient history)
[4] = system: moderate knee osteoarthritis ab degree II-III; conditions: Case III; injections into the knee in the past (patient history)
[5] = system: partial rotator cuff rupture and subacromial constriction with complete shoulder stiffness le; conditions: Case IX; numerous injections into the left shoulder (patient history)
[6] = system: low facet arthrosis; conditions: Case VII; in-patient injections into the low facets (patient history)
[7] = system: medial knee osteoarthritis ri degree IV and retropatellar; conditions: Case V; injections in the past (patient history)

Compound | effect in the treatment of osteoarthritis and degenerative spinal diseases ([1]; Anakinra alone) | effect in the treatment of osteoarthritis ([1]; alone, compared to a placebo treatment) | outcome of previous treatment [2] | outcome of previous treatment [3] | outcome of previous treatment [4] | outcome of previous treatment [5] | outcome of previous treatment [6] | outcome of previous treatment [7]
Anakinra | does not show any effect | did not show any effects | – | – | – | – | – | –
C[C@]12CCC(=O)C=C1CC[C@@H]1[C@@H]2C(=O)C[C@@]2(C)[C@H]1CC[C@]2(O)C(=O)CO [cortisone] | – | – | without success | without success | unsuccessful | without success | without success | without clinical success
hyaluronic acid | – | – | – | – | unsuccessful | – | – | without clinical success
